The test system of the test is Pyricularia oryzae. In kind it is in vivo. Conditions: 300 ppm, greenhouse foliar application spray on rice (var. Lemont) plants, inoculated within 24 hours from spraying.

`N#CCn1nnc(-c2ccccc2)n1` [Example 1, 5-phenyl-2H-tetrazole-2-acetonitrile]: the “Percent (%) disease control, Rice Blast” value was found to be 70%.
